The values below come from PubChem BioAssay AID462 (Columbia University Molecular Screening Center, 2006).

Each structure is given as a SMILES string. Active and inactive are the calls of the source.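 The calls were made as follows: active = activity score of at least 10, based on curve potency, or else summed standardized inhibition across doses; inactive = the rest.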

The subject of one experiment is HUVEC TNFa-induced p65 nuclear translocation, imaging. Briefly: inhibitors of NFkB p65 nuclear translocation, confirmation, imaging, HUVEC, TNFalpha stimulation, p65 immunofluorescence (AID 462).
Settings: not given
In general, IC50 refers to the concentration needed to halve the response being measured. For `C[C@H]1CCC/C=C/C2C[C@H](O)CC2[C@H](O)/C=C/C(=O)O1` (some centres not stated), the IC50 is 40 nM.
On the same count and under the same terms, with `O=S1(=O)Nc2c(ccc3cccnc23)-c2ccccc21` the figure was 2070 nM; with `C=CS(=O)(=O)c1ccc(Oc2ccc(S(=O)(=O)C=C)cc2)cc1`, 1460 nM.

Test system in a further experiment: not listed separately
The experiment is described as above. The settings on record: HUVEC TNFa-induced p65 nuclear translocation, imaging; at 8 µM (top of the series).
As a reminder, the inhibition is the relative decrease from the control value, in per cent. Turning to `COc1ccc(OCC(=O)OCCN(C)C)cc1`, the inhibition is 6.8% (inactive).
In the case of `CCC(NC(=O)Nc1nnc(C(F)(F)F)s1)(C(F)(F)F)C(F)(F)F`, the inhibition is -22.3% (inactive).
The same measure, in the same setting: with `COc1ccc(N(C)C(=O)CCS(=O)(=O)c2cccc3nonc23)cc1` the figure was -0.8% (inactive); with `Cc1nc(N)[nH]c(=O)c1CCC(=O)OCC(C)C`, 0% (inactive); with `COC(=O)c1ccc(N2C(=O)CC(N3CCN(C(=O)c4ccco4)CC3)C2=O)cc1` (configuration not stated), 11.1% (inactive).
The same measure, in the same setting: with `O=C1[C@@H]2C(c3ccccc3Cl)=NO[C@@H]2C(=O)N1Cc1ccccc1` the figure was 0% (inactive); with `CC1=CC2=C(OC1N(C)C)c1cccc3cccc(c13)C2=O` (configuration not stated), 5.4% (inactive).
As for `CC(C)OC(=O)CSc1nnc(Cc2ccccc2)n1Cc1ccco1`, the inhibition is -1.5% (inactive).
Still for that read-out and setting: with `COc1ccc(S(=O)(=O)N2CCCC2C(=O)Nc2ccc(C)cc2)cc1` (configuration not stated) the figure was -0.4% (inactive); with `COC(=O)CCC(NC(=O)c1cc(-c2ccc3c(c2)OCCO3)oc1C)C(=O)OC` (configuration not stated), -1.9% (inactive).
The same measure, in the same setting: with `Cc1ccc(Cn2ncc3c(N4CCN(Cc5ccc(Cl)cc5)CC4)ncnc32)cc1` the figure was -0.2% (inactive); with `CCOc1ccccc1C(=O)N1CCN(c2cccc(Cl)c2)CC1`, 18.5% (inactive).
On the same count and under the same terms, with `Cc1ccc(-n2c(=O)[nH]c3c(C(N)=O)nc(CC(C)C)nc32)cc1` the figure was -5.2% (inactive); with `Nc1nc(C(=O)N2CCOCC2)nn1S(=O)(=O)c1ccc(Cl)cc1`, -1.1% (inactive).
Turning to `COc1ccc(OC)c(C2C(C#N)=C(N)Oc3cc(C)n(Cc4ccccn4)c(=O)c32)c1` (configuration not stated), the inhibition was 4.2% (inactive).
Still for that read-out and setting: with `CCOC(=O)c1cc2c(=O)n3cccc(C)c3nc2n(CCc2ccccc2)c1=N` the figure was 17.3% (inactive); with `CC(C)CNS(=O)(=O)c1ccc(CCC(=O)NCc2ccco2)cc1`, -5.6% (inactive).
Still for that read-out and setting: with `COc1cc([C@@H]2c3cc4c(cc3[C@H](O)[C@H]3COC(=O)[C@H]23)OCO4)cc(OC)c1OC` the figure was 26.3%; with `COc1ccc(-n2c(Cc3cccn3C)nnc2SCC(=O)Nc2cccc(Cl)c2)cc1`, 3.9% (inactive).
On the same count and under the same terms, with `COc1ccccc1-c1nnc2n1N=C(c1ccc(O)c(O)c1)CS2` the figure was 23% (inactive); with `COc1ccc(CNC(=O)COC(=O)c2n[nH]c3ccccc23)cc1OC`, -3.8% (inactive); with `O=C(C1CCC(N2C(=O)C3CC=CCC3C2=O)CC1)N1CCCCC1` (configuration not stated), -2.3% (inactive).
Regarding `Cc1nn(Cc2ccccc2)c(C)c1NC(=O)CCC(=O)O`, the inhibition was -7.5% (inactive).
On the same count and under the same terms, with `c1cncc(C2Nc3ccccc3-c3nc4ccccc4n32)c1` (configuration not stated) the figure was -5% (inactive); with `CCCCOc1ccc(-c2nnn(CC(=O)Nc3ncc(CC(=O)OCC)s3)n2)cc1`, -1.5% (inactive).
Still for that read-out and setting: with `Cc1cccc(N2CN=c3s/c(=C\c4ccncc4)c(=O)n3C2)c1` the figure was -7.5% (inactive); with `N#Cc1c(N)n(CCOC(=O)c2ccc(Cl)cc2)c2nc3ccccc3nc12`, 6.7% (inactive).
The same measure, in the same setting: with `COc1ccccc1CN1CC(C(=O)N2CCN(c3ccc(F)cc3)CC2)CC1=O` (configuration not stated) the figure was 1.4% (inactive).
Take `CN(C(=O)COc1cc(=O)n(C)c2ccccc12)c1ccc(Br)cc1`: the inhibition is 2.8% (inactive).
For the compound `O=C(COC(=O)c1ccccc1Oc1ccccc1)NC1CCS(=O)(=O)C1` (configuration not stated), the inhibition was -1.2% (inactive).
The same measure, in the same setting: with `Cc1nc(NC2=NCN(CCc3ccccc3)CN2)nc2c(C)cccc12` the figure was 1% (inactive).
The same measure, in the same setting: with `O=C(O)c1ccc(COCC(F)(F)C(F)F)o1` the figure was 7.3% (inactive).
The same measure, in the same setting: with `COc1cc(C(O)c2nc3ccccc3n2C)cc(OC)c1OC` (configuration not stated) the figure was -5.7% (inactive).
With `COc1ccc(-c2nc3c(c(SCC(=O)N4CCOCC4)n2)COC(C)(C)C3)cc1`, the inhibition is 1.1% (inactive).
Same read-out and setting: with `O=C(COc1ccc2ccccc2c1)N1CCN(C2CCN(Cc3ccccc3)CC2)CC1` the figure was 3.5% (inactive); with `COc1ccc(/C(O)=C2/C(=O)C(=O)N(Cc3ccco3)C2c2cccs2)cc1` (configuration not stated), 4.7% (inactive); with `O=C(CN(Cc1ccco1)C(=O)CNS(=O)(=O)c1ccc(Cl)cc1)NCc1ccc(F)cc1`, -0.8% (inactive).
As to `CCC1Oc2ccccc2N(CC(=O)Nc2ccc(OC)cc2OC)C1=O` (configuration not stated), the inhibition is -5% (inactive).
Same read-out and setting: with `COc1ccc(OC)c(NS(=O)(=O)c2ccc(N3CCCC3=O)cc2)c1` the figure was 15.5% (inactive).
On the same count and under the same terms, with `COc1ccc(N2CCN(CCCNC(=O)C3CCCN(S(=O)(=O)c4cnc[nH]4)C3)CC2)cc1` (configuration not stated) the figure was 3.2% (inactive).
On to `CCn1c(C(=O)N2CCCC(C(=O)O)C2)cc2sccc21` (configuration not stated), for which the inhibition was 1.8% (inactive).
Same read-out and setting: with `Cc1c(C2Nc3ccccc3NC3=C2C(=O)CC(C)(C)C3)cnn1C` (configuration not stated) the figure was 4.8% (inactive).
For the compound `Cc1ccccc1CN1CCNC1=O`, the inhibition is -8% (inactive).
Still for that read-out and setting: with `Cc1csc(SCCn2c(N3CCCC3)nc3c2c(=O)[nH]c(=O)n3C)n1` the figure was -7.5% (inactive).
On the same count and under the same terms, with `Cc1cc(C)n(CC2CC(=O)N(c3cc(Cl)cc(Cl)c3)C2=O)n1` (configuration not stated) the figure was 6.8% (inactive).
Still for that read-out and setting: with `O=C(NCCCN1CCCC1=O)C1CCN(S(=O)(=O)N2CCOCC2)CC1` the figure was -10% (inactive); with `O=C(Nc1ccc2oc(-c3ccncc3)nc2c1)c1cccs1`, 0.6% (inactive); with `Nn1c(SCC(=O)Nc2ccc(F)cc2)nnc1-c1cccnc1`, -0.4% (inactive).
As for `COc1ccc(CC(=O)Nc2ccc(OC)c(NC(=O)c3ccco3)c2)cc1`, the inhibition is -6.4% (inactive).
Still for that read-out and setting: with `CCOC(=O)CCNc1n[nH]c(=O)[nH]c1=O` the figure was 14.4% (inactive).
On the same count and under the same terms, with `CC1CCCCN1CCNC(=O)c1ccc2c(=O)n(CCc3ccccc3)c(=O)[nH]c2c1` (configuration not stated) the figure was 4.4% (inactive); with `CC12C(=O)N(CCC(=O)O)C(=O)C1C1C=CC2C1` (configuration not stated), -5.1% (inactive).
Take `Cn1c(C(=O)NCCC2=CCCCC2)cc2c(=O)n3ccccc3nc21`: the inhibition was -8% (inactive).
With `CN1CCN(c2oc(COc3ccc(-c4ccccc4)cc3)nc2C#N)CC1`, the inhibition is 2.4% (inactive).
The same measure, in the same setting: with `COc1cc(C2C(C#N)=C(N)Oc3cc(N)ccc32)cc(OC)c1OC` (configuration not stated) the figure was 23.6% (inactive); with `CC(C)CCNC(=O)NC(=O)CSc1nnc(COc2ccccc2Cl)o1`, -7.1% (inactive).
Regarding `COc1ccccc1CNC(=O)C1CCCN(S(=O)(=O)c2cnc[nH]2)C1` (configuration not stated), the inhibition is -1.1% (inactive).
Regarding `COc1cc(C)nc(OCCNC(=O)COc2ccc(Cl)cc2C)n1`, the inhibition is 0.4% (inactive).
As to `O=C(CSc1nnc(SCc2ccc(Cl)cc2)s1)N1CCN(C(=O)c2ccco2)CC1`, the inhibition was 5.9% (inactive).
With `CCOc1cc(C2C(C#N)=C(N)Oc3n[nH]c(CC)c32)ccc1OCCN1CCOCC1` (configuration not stated), the inhibition is -2.3% (inactive).
With `Clc1ccc(-c2nnc3sc(-c4ccc(Br)o4)nn23)cc1`, the inhibition is 3.4% (inactive).
As for `CCn1c(C(C#N)/C(=N\S(=O)(=O)c2cccs2)c2ccccc2)nc2ccccc21` (configuration not stated), the inhibition is -1.6% (inactive).
Still for that read-out and setting: with `CC[C@]1(O)CC2CN(CCc3c([nH]c4ccccc34)[C@@](C(=O)OC)(c3cc4c(cc3OC)N(C=O)[C@H]3[C@@](O)(C(=O)OC)[C@H](OC(C)=O)[C@]5(CC)C=CCN6CC[C@]43[C@@H]65)C2)C1` (some centres not stated) the figure was 17.2%; with `Cc1cc(C(C)(C)C)c(O)c(C)c1CC1=NCCN1`, 7.9% (inactive).
Still for that read-out and setting: with `COc1ccc(C(NC(=O)c2ccco2)c2ccc(OC)c(OC)c2)cc1` (configuration not stated) the figure was -3.1% (inactive); with `CCOc1ccc(C2=Nn3c(nnc3-c3ccccc3OC)SC2)cc1`, 19.7%.
Same read-out and setting: with `Cn1c(=O)c2c(nc(CN3CCOCC3)n2CC(O)CO)n(C)c1=O` (configuration not stated) the figure was 3.2% (inactive).
Turning to `CCN1C(=C2C(=O)c3ccccc3C2=O)C=Cc2ccccc21`, the inhibition is -5% (inactive).
On to `COc1ccc2c(c1)[nH]c1c(=O)n(CC3CCCO3)cnc12` (configuration not stated), for which the inhibition was -2.7% (inactive).
In the case of `CCn1c(CSc2ncccn2)nnc1SCC(=O)N1c2ccccc2CC1C` (configuration not stated), the inhibition is -6.1% (inactive).
Take `COC(=O)CCC(=O)Nc1cccc(Cl)c1`: the inhibition is -0.6% (inactive).
Still for that read-out and setting: with `CCOc1ccc(S(=O)(=O)N(C)C)cc1-c1nc2c(C(C)(C)C)nn(C)c2c(=O)[nH]1` the figure was -7.2% (inactive); with `COc1cccc(N2CCN(c3ncnc4c3[nH]c3ccccc34)CC2C)c1` (configuration not stated), 66.1%; with `O=C(CSc1nnc2ncccn12)N1CCCCCC1`, -3.2% (inactive).
